In article PMC12751012, “Nanoscale Direct-to-Biology Optimization and Structural Insights into Selective S. aureus TrmD Inhibitors” (Journal of Medicinal Chemistry, 2025):

Target: T1, S. aureus TrmD (Staphylococcus aureus, UniProt Q2FZ43)
T1 construct: made in house; host or cells: E. coli BL21
T1 sequence (Q2FZ43 1-245): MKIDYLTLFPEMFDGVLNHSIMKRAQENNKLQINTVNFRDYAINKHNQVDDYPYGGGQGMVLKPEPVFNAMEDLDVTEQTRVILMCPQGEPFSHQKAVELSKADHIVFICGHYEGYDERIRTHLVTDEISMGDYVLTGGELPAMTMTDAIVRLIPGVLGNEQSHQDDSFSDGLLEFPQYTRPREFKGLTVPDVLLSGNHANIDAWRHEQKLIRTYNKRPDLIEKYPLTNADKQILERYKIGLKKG
Assay: nanoSAR direct-to-biology FP displacement screening of crude triazoles
Assay type: binding
Conditions: crude triazole at 1 μM, assuming full conversion; 500 nM TrmD, 10 nM tracer 4; read-out: % displaced tracer
Outline: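 S. aureus TrmD (500 nM) with tracer 4 (10 nM) in Tris/NaCl/MgCl2/glycerol buffer, pH 7.5, was challenged with unpurified triazoles from in situ CuAAC of alkyne 7 with a 320-member azide library.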

SMILES | inhibition at 1 µM [%]
O=c1[nH]cnc2[nH]cc(-c3cn(CCCN4CCCOCC4)nn3)c12 [Compound 02A10, O=C1NC=NC=2NC=C(C=3N=NN(C3)CCC[N@@H+]4CCOCCC4)C12] | 23
O=c1[nH]cnc2[nH]cc(-c3cn(-c4cccc5c4CCCC5)nn3)c12 [Compound 02A11, O=C1NC=NC=2NC=C(C=3N=NN(c4c5c(ccc4)CCCC5)C3)C12] | 14
O=c1[nH]cnc2[nH]cc(-c3cn(C4(C(F)F)CC4)nn3)c12 [Compound 02A12, FC(F)C1(N2N=NC(C=3C=4C(=O)NC=NC4NC3)=C2)CC1] | 18
O=c1[nH]cnc2[nH]cc(-c3cn(CCCCCO)nn3)c12 [Compound 02B01, O=C1NC=NC=2NC=C(C=3N=NN(C3)CCCCCO)C12] | 27
O=c1[nH]cnc2[nH]cc(-c3cn(-c4ccc5nccnc5c4)nn3)c12 [Compound 02B02, O=C1NC=NC=2NC=C(C=3N=NN(c4cc5nccnc5cc4)C3)C12] | 8.54
Cc1ccc(-n2cc(-c3c[nH]c4nc[nH]c(=O)c34)nn2)cc1Cl [Compound 02B03, Clc1c(ccc(N2N=NC(C=3C=4C(=O)NC=NC4NC3)=C2)c1)C] | 0.61
O=c1[nH]cnc2[nH]cc(-c3cn(C4CCOCC4)nn3)c12 [Compound 02B04, O=C1NC=NC=2NC=C(C=3N=NN(C3)C4CCOCC4)C12] | 10
O=c1[nH]cnc2[nH]cc(-c3cn(-c4ccc(-c5ccccc5)cc4)nn3)c12 [Compound 02B05, O=C1NC=NC=2NC=C(C=3N=NN(c4ccc(c5ccccc5)cc4)C3)C12] | 3
NS(=O)(=O)c1ccc(-n2cc(-c3c[nH]c4nc[nH]c(=O)c34)nn2)cc1 [Compound 02B06, S(=O)(=O)(N)c1ccc(N2N=NC(C=3C=4C(=O)NC=NC4NC3)=C2)cc1] | 17
O=c1[nH]cnc2[nH]cc(-c3cn(Cc4cccs4)nn3)c12 [Compound 02B07, S1C(=CC=C1)CN2N=NC(C=3C=4C(=O)NC=NC4NC3)=C2] | 85
COc1ccccc1C(C)(C)n1cc(-c2c[nH]c3nc[nH]c(=O)c23)nn1 [Compound 02B08, O=C1NC=NC=2NC=C(C=3N=NN(C3)C(c4c(OC)cccc4)(C)C)C12] | 5.49
CC[C@@H](c1ccccc1F)n1cc(-c2c[nH]c3nc[nH]c(=O)c23)nn1 [Compound 02B09, Fc1c(cccc1)[C@@H](N2N=NC(C=3C=4C(=O)NC=NC4NC3)=C2)CC] | 24
CC(C)(C)OC(=O)N1CC(c2ocnc2Cn2cc(-c3c[nH]c4nc[nH]c(=O)c34)nn2)C1 [Compound 02B10, O=C(OC(C)(C)C)N1C[C@H](C=2OC=NC2CN3N=NC(C=4C=5C(=O)NC=NC5NC4)=C3)C1] | 37
O=C(NCCCn1cc(-c2c[nH]c3nc[nH]c(=O)c23)nn1)c1c[nH]nn1 [Compound 02B11, O=C1NC=NC=2NC=C(C=3N=NN(C3)CCCNC(=O)C=4N=NNC4)C12] | 10
O=c1[nH]cnc2[nH]cc(-c3cn(CCO[C@H]4CCOC4)nn3)c12 [Compound 02B12, O=C1NC=NC=2NC=C(C=3N=NN(C3)CCO[C@@H]4COCC4)C12] | 56
Cc1ccc(O)c(Cn2cc(-c3c[nH]c4nc[nH]c(=O)c34)nn2)n1 [Compound 02C01, O=C1NC=NC=2NC=C(C=3N=NN(C3)Cc4nc(ccc4O)C)C12] | 32
O=c1[nH]cnc2[nH]cc(-c3cn(CCc4c[nH]c5ccccc45)nn3)c12 [Compound 02C02, O=C1NC=NC=2NC=C(C=3N=NN(C3)CCC=4c5c(NC4)cccc5)C12] | 56
O=c1[nH]cnc2[nH]cc(-c3cn(-c4ccc(Cl)cn4)nn3)c12 [Compound 02C03, Clc1cnc(N2N=NC(C=3C=4C(=O)NC=NC4NC3)=C2)cc1] | -1.83
O=c1[nH]cnc2[nH]cc(-c3cn(C[C@H](O)c4ccc(Cl)cc4)nn3)c12 [Compound 02C04, Clc1ccc(cc1)[C@@H](O)CN2N=NC(C=3C=4C(=O)NC=NC4NC3)=C2] | 85
O=c1[nH]cnc2[nH]cc(-c3cn([C@H]4CC5(CCCC5)Oc5ccc(Cl)cc54)nn3)c12 [Compound 02C05, Clc1cc2c(OC3(C[C@@H]2N4N=NC(C=5C=6C(=O)NC=NC6NC5)=C4)CCCC3)cc1] | 55
COC1([C@H](CO)n2cc(-c3c[nH]c4nc[nH]c(=O)c34)nn2)CCC1 [Compound 02C06, O=C1NC=NC=2NC=C(C=3N=NN(C3)[C@H](C4(OC)CCC4)CO)C12] | 5
O=c1[nH]cnc2[nH]cc(-c3cn(Cc4cn5cccnc5n4)nn3)c12 [Compound 02C07, O=C1NC=NC=2NC=C(C=3N=NN(C3)CC=4N=C5N=CC=CN5C4)C12] | 82
O=c1[nH]cnc2[nH]cc(-c3cn([C@H]4COCC[C@@H]4O)nn3)c12 [Compound 02C08, O=C1NC=NC=2NC=C(C=3N=NN(C3)[C@@H]4[C@@H](O)CCOC4)C12] | 49
O=c1[nH]cnc2[nH]cc(-c3cn(CC4CCNCC4)nn3)c12 [Compound 02C09, O=C1NC=NC=2NC=C(C=3N=NN(C3)CC4CC[NH2+]CC4)C12] | 79

SMILES | inhibition at 1 µM [%]
O=c1[nH]cnc2[nH]cc(-c3cn(C4(c5ccc(F)cc5)CCOCC4)nn3)c12 [Compound 02C10, Fc1ccc(cc1)C2(N3N=NC(C=4C=5C(=O)NC=NC5NC4)=C3)CCOCC2] | 6
O=C(O)c1ccc(Cn2cc(-c3c[nH]c4nc[nH]c(=O)c34)nn2)cc1 [Compound 02C11, [O-]C(=O)c1ccc(cc1)CN2N=NC(C=3C=4C(=O)NC=NC4NC3)=C2] | 43
O=c1[nH]cnc2[nH]cc(-c3cn(-c4ccncc4)nn3)c12 [Compound 02C12, O=C1NC=NC=2NC=C(C=3N=NN(c4ccncc4)C3)C12] | 18
O=c1[nH]cnc2[nH]cc(-c3cn(CCCN4CCC(C(F)(F)F)CC4)nn3)c12 [Compound 02D01, FC(F)(F)[C@@H]1CC[N@H+](CC1)CCCN2N=NC(C=3C=4C(=O)NC=NC4NC3)=C2] | 23
COc1ccc(Cl)c(-n2cc(-c3c[nH]c4nc[nH]c(=O)c34)nn2)c1 [Compound 02D02, Clc1c(N2N=NC(C=3C=4C(=O)NC=NC4NC3)=C2)cc(OC)cc1] | 3
O=c1[nH]cnc2[nH]cc(-c3cn(-c4nccs4)nn3)c12 [Compound 02D03, S1C(=NC=C1)N2N=NC(C=3C=4C(=O)NC=NC4NC3)=C2] | 7
O=c1[nH]cnc2[nH]cc(-c3cn(C[C@@H]4CNCCO4)nn3)c12 [Compound 02D04, O=C1NC=NC=2NC=C(C=3N=NN(C3)C[C@H]4OCC[NH2+]C4)C12] | 24
N#Cc1ccc(-n2cc(-c3c[nH]c4nc[nH]c(=O)c34)nn2)cc1 [Compound 02D05, O=C1NC=NC=2NC=C(C=3N=NN(c4ccc(C#N)cc4)C3)C12] | 1.83
O=c1[nH]cnc2[nH]cc(-c3cn(C[C@@H]4CCOC4)nn3)c12 [Compound 02D06, O=C1NC=NC=2NC=C(C=3N=NN(C3)C[C@H]4COCC4)C12] | 26
CC(C)C(=O)NCCn1cc(-c2c[nH]c3nc[nH]c(=O)c23)nn1 [Compound 02D07, O=C1NC=NC=2NC=C(C=3N=NN(C3)CCNC(=O)C(C)C)C12] | 41
O=c1[nH]cnc2[nH]cc(-c3cn(-c4ccnc(CO)c4)nn3)c12 [Compound 02D08, O=C1NC=NC=2NC=C(C=3N=NN(c4cc(ncc4)CO)C3)C12] | 25
N[C@H]1CC[C@H](n2cc(-c3c[nH]c4nc[nH]c(=O)c34)nn2)CC1 [Compound 02D09, O=C1NC=NC=2NC=C(C=3N=NN(C3)[C@@H]4CC[C@@H]([NH3+])CC4)C12] | 21
N[C@]12CC[C@](n3cc(-c4c[nH]c5nc[nH]c(=O)c45)nn3)(CC1)C2 [Compound 02D10, O=C1NC=NC=2NC=C(C=3N=NN(C3)[C@]45C[C@]([NH3+])(CC4)CC5)C12] | 11
O=c1[nH]cnc2[nH]cc(-c3cn(CC[C@@H]4CCCC4(F)F)nn3)c12 [Compound 02D11, F[C@@]1(F)[C@H](CCN2N=NC(C=3C=4C(=O)NC=NC4NC3)=C2)CCC1] | 75
COc1cccc(OC)c1Cn1cc(-c2c[nH]c3nc[nH]c(=O)c23)nn1 [Compound 02D12, O=C1NC=NC=2NC=C(C=3N=NN(C3)Cc4c(OC)cccc4OC)C12] | 18
CC(C)(CN)Cn1cc(-c2c[nH]c3nc[nH]c(=O)c23)nn1 [Compound 02E01, O=C1NC=NC=2NC=C(C=3N=NN(C3)CC(C[NH3+])(C)C)C12] | 54
N#CCCCn1cc(-c2c[nH]c3nc[nH]c(=O)c23)nn1 [Compound 02E02, O=C1NC=NC=2NC=C(C=3N=NN(C3)CCCC#N)C12] | 35
O=c1[nH]cnc2[nH]cc(-c3cn([C@H]4CCCCC[C@@H]4O)nn3)c12 [Compound 02E03, O=C1NC=NC=2NC=C(C=3N=NN(C3)[C@@H]4[C@@H](O)CCCCC4)C12] | 10
NCCCCn1cc(-c2c[nH]c3nc[nH]c(=O)c23)nn1 [Compound 02E04, O=C1NC=NC=2NC=C(C=3N=NN(C3)CCCC[NH3+])C12] | 16
COc1ccc(Cn2cc(-c3c[nH]c4nc[nH]c(=O)c34)nn2)cc1 [Compound 02E05, O=C1NC=NC=2NC=C(C=3N=NN(C3)Cc4ccc(OC)cc4)C12] | 78
NC1(c2noc(Cn3cc(-c4c[nH]c5nc[nH]c(=O)c45)nn3)n2)CCCCCC1 [Compound 02E06, O=C1NC=NC=2NC=C(C=3N=NN(C3)CC=4ON=C(N4)C5([NH3+])CCCCCC5)C12] | 24
O=c1[nH]cnc2[nH]cc(-c3cn(Cc4cscn4)nn3)c12 [Compound 02E07, S1C=NC(=C1)CN2N=NC(C=3C=4C(=O)NC=NC4NC3)=C2] | 80
Nc1ccc(Cl)c(-n2cc(-c3c[nH]c4nc[nH]c(=O)c34)nn2)c1 [Compound 02E08, Clc1c(N2N=NC(C=3C=4C(=O)NC=NC4NC3)=C2)cc(N)cc1] | 13
